Experimental data from US12157730B2, “Heteroaryl derivative, method for producing same, and pharmaceutical composition comprising same as effective component” (VORONOI INC., priority 2019, dated 2024).

target: T1, Ba/F3 cell EGFR Exon20 ins NPH (Homo sapiens, UniProt P00533, INS773NPH); experiment: Ba/F3 cell proliferation suppression, EGFR Exon20 ins NPH; type: cell-based; details: GI50 class; Ba/F3 cell line with NPH inserted at Exon20 of EGFR; 72 hours
T1 construct: expressed in transfected cells; host or cells: Ba/F3
In short: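 Seed 3000–5000 cells/well; after 24 h add compound (12 conc., 0.3 nM–50 um final); incubate 72 h; add CellTiter-Glo, 10 min room temperature; read luminescence; GI50 from % growth vs control, triplicate.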

How did the “Ba/F3 (NPH) Activity” value turn out when C=CC(=O)Nc1cc(Nc2cc(N3OCC[C@@H]3c3cccc4ccccc34)ncn2)c(OC)cc1N1CCN(C)CC1 [compound 441, N-(4-methoxy-2-(4-methylpiperazine-1-yl)-5-((6-((R)-3-(naphthalene-1-yl)isoxazolidine-2-yl)pyrimidine-4-yl)amino)phenyl) acrylamide] was run?
The value was “B (50 nM ≤ GI50 < 500 nM)”.

With C=CC(=O)Nc1cc(Nc2cc(N3OCC[C@@H]3c3cccc(C#N)c3)ncn2)c(OC)cc1N1CCC(N2CCN(C3CC3)C[C@@H]2C)CC1 [Example 132, N-(5-((6-((R)-3-(3-cyanophenyl)isoxazolidine-2-yl)pyrimidine-4-yl)amino)-2-(4-((S)-4-cyclopropyl-2-methylpiperazine-1-yl)piperidine-1-yl)-4-methoxyphenyl) acrylamide] as the molecule, how does the “Ba/F3 (NPH) Activity” value read?
The value was “B (50 nM ≤ GI50 < 500 nM)”.

C=CC(=O)Nc1cc(Nc2cc(N3OCC[C@@H]3c3ccc(F)c(Cl)c3F)ncn2)c(OC)cc1N1CCC(N2CCN(C3COC3)CC2)CC1 [Example 202, N-(5-((6-((R)-3-(3-chloro-2,4-difluorophenyl)isoxazolidine-2-yl)pyrimidine-4-yl)amino)-4-methoxy-2-(4-(4-(oxetane-3-yl)piperazine-1-yl)piperidine-1-yl)phenyl)acrylamide] was tested. Which “Ba/F3 (NPH) Activity” value did it give?
Its value is “A (GI50 < 50 nM)”.

How did the “Ba/F3 (NPH) Activity” value turn out when C=CC(=O)Nc1cc(Nc2cc(N3OCC[C@@H]3c3cc(F)cc(Cl)c3)ncn2)c(OC)cc1N1CCC(N2CCN(C3CC3)CC2)CC1 [Example 163, N-(5-((6-((R)-3-(3-chloro-5-fluorophenyl)isoxazolidine-2-yl)pyrimidine-4-yl)amino)-2-(4-(4-cyclopropylpiperazine-1-yl)piperidine-1-yl)-4-methoxyphenyl) acrylamide] was run?
Its value is “A (GI50 < 50 nM)”.

Which “Ba/F3 (NPH) Activity” value does the source give for C=CC(=O)Nc1cc(Nc2cc(N3OCC[C@@H]3c3ccc(Cl)c(F)c3)ncn2)c(OC)cc1N1CCN(C)CC1 [compound 795, N-(5-((6-((R)-3-(4-chloro-3-fluorophenyl)isoxazolidine-2-yl)pyrimidine-4-yl)amino)-4-methoxy-2-(4-methylpiperazine-1-yl)phenyl)acrylamide] here?
The value was “B (50 nM ≤ GI50 < 500 nM)”.

How did the “Ba/F3 (NPH) Activity” value turn out when C=CC(=O)Nc1cc(Nc2cc(N3OCC[C@@H]3c3ccc(F)c(F)c3)ncn2)c(OC)cc1N1CCC(N2CCN(C(C)=O)CC2)CC1 [compound 544, N-(2-(4-(4-acetylpiperazine-1-yl)piperidine-1-yl)-5-((6-((R)-3-(3,4-difluorophenyl)isoxazolidine-2-yl)pyrimidine-4-yl)amino)-4-methoxyphenyl) acrylamide] was run?
The value was “A (GI50 < 50 nM)”.

How did the “Ba/F3 (NPH) Activity” value turn out when C=CC(=O)Nc1cc(Nc2cc(N3OCC[C@@H]3c3ccc(C)nc3)ncn2)c(OC)cc1N1CCN(CCN(C)C)CC1 [Example 219, N-(2-(4-(2-(dimethylamino)ethyl)piperazine-1-yl)-4-methoxy-5-((6-((R)-3-(6-methylpyridine-3-yl)isoxazolidine-2-yl)pyrimidine-4-yl)amino)phenyl)acrylamide] was run?
Its value is “B (50 nM ≤ GI50 < 500 nM)”.

With C=CC(=O)Nc1cc(Nc2cc(N3OCC[C@@H]3c3ccc(F)cc3F)ncn2)c(OC)cc1N1CCC(N2CCC(N(C)C)CC2)CC1 [compound 478, N-(5-((6-((R)-3-(2,4-difluorophenyl)isoxazolidine-2-yl)pyrimidine-4-yl)amino)-2-(4-(dimethylamino)-[1,4'-bipiperidine]-1'-yl)-4-methoxyphenyl) acrylamide] as the molecule, how does the “Ba/F3 (NPH) Activity” value read?
The value was “A (GI50 < 50 nM)”.

C=CC(=O)Nc1cc(Nc2cc(N3OCC[C@@H]3c3ccc(Cl)cc3)ncn2)c(OC)cc1N1CC[C@H](N2CCOCC2)C1 [compound 734, N-(5-((6-((R)-3-(4-chlorophenyl)isoxazolidine-2-yl)pyrimidine-4-yl)amino)-4-methoxy-2-((S)-3-morpholinopyrolidine-1-yl)phenyl)acrylamide] was tested. Which “Ba/F3 (NPH) Activity” value did it give?
Its value is “B (50 nM ≤ GI50 < 500 nM)”.

With C=CC(=O)Nc1cc(Nc2cc(N3OCC[C@@H]3c3cc(F)ccc3F)ncn2)c(OC)cc1N1CCN(C2CC2)C[C@@H]1C [compound 879, N-(2-((S)-4-cyclopropyl-2-methylpiperazine-1-yl)-5-((6-((R)-3-(2,5-difluorophenyl)isoxazolidine-2-yl)pyrimidine-4-yl)amino)-4-methoxyphenyl) acrylamide] as the molecule, how does the “Ba/F3 (NPH) Activity” value read?
The value was “A (GI50 < 50 nM)”.

C=CC(=O)Nc1cc(Nc2cc(N3OCC[C@@H]3Cc3cc(F)cc(F)c3)ncn2)c(OC)cc1N1CCC(N2CCN(C3CC3)CC2)CC1 [compound 1033, N-(2-(4-(4-cyclopropylpiperazine-1-yl)piperidine-1-yl)-5-((6-((S)-3-(3,5-difluorobenzyl)isoxazolidine-2-yl)pyrimidine-4-yl)amino)-4-methoxyphenyl) acrylamide] was tested. Which “Ba/F3 (NPH) Activity” value did it give?
The value was “A (GI50 < 50 nM)”.

C=CC(=O)Nc1cc(Nc2cc(N3OCC[C@@H]3c3c(F)ccc(F)c3F)ncn2)c(OC)cc1N1CCC(N2CCN(C3CC3)[C@@H](C)C2)CC1 [Example 167, N-(2-(4-((S)-4-cyclopropyl-3-methylpiperazine-1-yl)piperidine-1-yl)-4-methoxy-5-((6-((R)-3-(2,3,6-trifluorophenyl)isoxazolidine-2-yl)pyrimidine-4-yl)amino)phenyl)acrylamide] was tested. Which “Ba/F3 (NPH) Activity” value did it give?
The value was “A (GI50 < 50 nM)”.

How did the “Ba/F3 (NPH) Activity” value turn out when C=CC(=O)Nc1cc(Nc2cc(N3OCC[C@@H]3c3cccc(Cl)c3F)ncn2)c(OC)cc1N1CCC(N2CCN(C)CC2)CC1 [compound 747, N-(5-((6-((R)-3-(3-chloro-2-fluorophenyl)isoxazolidine-2-yl)pyrimidine-4-yl)amino)-4-methoxy-2-(4-(4-methylpiperazine-1-yl)piperidine-1-yl)phenyl) acrylamide] was run?
The value was “A (GI50 < 50 nM)”.

C=CC(=O)Nc1cc(Nc2cc(N3OCC[C@@H]3c3cccc(Cl)c3F)ncn2)c(OC)cc1N1CCC(N2CCC3(CC2)CC3)CC1 [compound 355, N-(2-(4-(6-azaspiro[2.5]octan-6-yl)piperidine-1-yl)-5-((6-((R)-3-(3-chloro-2-fluorophenyl)isoxazolidine-2-yl)pyrimidine-4-yl)amino)-4-methoxyphenyl) acrylamide] was tested. Which “Ba/F3 (NPH) Activity” value did it give?
The value was “A (GI50 < 50 nM)”.

Which “Ba/F3 (NPH) Activity” value does the source give for C=CC(=O)Nc1cc(Nc2cc(N3OCC[C@@H]3c3ccc(F)c(Cl)c3F)ncn2)c(OC)cc1N1CCO[C@@H](C)C1 [compound 657, N-(5-((6-((R)-3-(3-chloro-2,4-difluorophenyl)isoxazolidine-2-yl)pyrimidine-4-yl)amino)-4-methoxy-2-((S)-2-methylmorpholino)phenyl)acrylamide] here?
Its value is “A (GI50 < 50 nM)”.

With C=CC(=O)Nc1cc(Nc2cc(N3OCC[C@@H]3c3cccc(Cl)c3)ncn2)c(OC)cc1N1CCC(N2CCOCC2)CC1 [compound 417, N-(5-((6-((R)-3-(3-chlorophenyl)isoxazolidine-2-yl)pyrimidine-4-yl)amino)-4-methoxy-2-(4-morpholinopiperidine-1-yl)phenyl) acrylamide] as the molecule, how does the “Ba/F3 (NPH) Activity” value read?
Its value is “A (GI50 < 50 nM)”.

For C=CC(=O)Nc1cc(Nc2cc(N3OCC[C@H]3c3cc(F)cc(F)c3)ncn2)c(OC)cc1N1CCC(N2CCN(C3CC3)CC2)CC1 [Example 118], which “Ba/F3 (NPH) Activity” value is on record?
Its value is “C (500 nM ≤ GI50 < 5000 nM)”.

For C=CC(=O)Nc1cc(Nc2cc(N3OCC[C@@H]3c3cc(F)cc(F)c3)ncn2)cc(N2CCN(C)CC2)c1 [compound 633, N-(3-((6-((R)-3-(3,5-difluorophenyl)isoxazolidine-2-yl)pyrimidine-4-yl)amino)-5-(4-methylpiperazine-1-yl)phenyl)acrylamide], which “Ba/F3 (NPH) Activity” value is on record?
Its value is “B (50 nM ≤ GI50 < 500 nM)”.

C=CC(=O)Nc1cc(Nc2cc(N3OCC[C@@H]3Cc3cccc(F)c3C)ncn2)c(OC)cc1N1CC[C@@H](N(C)C)C1 [compound 1002, N-(2-((R)-3-(dimethylamino)pyrolidine-1-yl)-5-((6-((S)-3-(3-fluoro-2-methylbenzyl)isoxazolidine-2-yl)pyrimidine-4-yl)amino)-4-methoxyphenyl) acrylamide] was tested. Which “Ba/F3 (NPH) Activity” value did it give?
The value was “A (GI50 < 50 nM)”.

For C=CC(=O)Nc1cc(Nc2cc(N3OCC[C@@H]3Cc3cccc(F)c3C)ncn2)c(OC)cc1N1CCC(N2CCN(C3CC3)[C@@H](C)C2)CC1 [compound 1005, N-(2-(4-((S)-4-cyclopropyl-3-methylpiperazine-1-yl)piperidine-1-yl)-5-((6-((S)-3-(3-fluoro-2-methylbenzyl)isoxazolidine-2-yl)pyrimidine-4-yl)amino)-4-methoxyphenyl) acrylamide], which “Ba/F3 (NPH) Activity” value is on record?
The value was “A (GI50 < 50 nM)”.

With C=CCN1CCN(C2CCN(c3cc(OC)c(Nc4cc(N5OCC[C@@H]5c5ccc(F)c(F)c5)ncn4)cc3NC(=O)C=C)CC2)CC1 [Example 212, N-(2-(4-(4-allylpiperazine-1-yl)piperidine-1-yl)-5-((6-((R)-3-(3,4-difluorophenyl)isoxazolidine-2-yl)pyrimidine-4-yl)amino)-4-methoxyphenyl) acrylamide] as the molecule, how does the “Ba/F3 (NPH) Activity” value read?
The value was “A (GI50 < 50 nM)”.

For C=CC(=O)Nc1cc(Nc2cc(N3OCC[C@@H]3c3cccc(F)c3F)ncn2)c(OC)cc1N1CCC(N2CCC(F)(F)CC2)CC1 [compound 341, N-(2-(4,4-difluoro-[1,4'-bipiperidine]-1'-yl)-5-((6-((R)-3-(2,3-difluorophenyl)isoxazolidine-2-yl)pyrimidine-4-yl)amino)-4-methoxyphenyl) acrylamide], which “Ba/F3 (NPH) Activity” value is on record?
The value was “A (GI50 < 50 nM)”.

For C=CC(=O)Nc1cc(Nc2cc(N3OCC[C@H]3Cc3ccccc3)ncn2)c(OC)cc1N1CCN(C)CC1 [compound 968, N-(5-((6-((R)-3-benzylisoxazolidine-2-yl)pyrimidine-4-yl)amino)-4-methoxy-2-(4-methylpiperazine-1-yl)phenyl)acrylamide], which “Ba/F3 (NPH) Activity” value is on record?
Its value is “C (500 nM ≤ GI50 < 5000 nM)”.

C=CC(=O)Nc1cc(Nc2cc(N3OCC[C@H]3c3c(F)cccc3F)ncn2)c(OC)cc1N1CCC(N2C[C@@H](C)O[C@@H](C)C2)CC1 [compound 309, N-(5-((6-((S)-3-(2,6-difluorophenyl)isoxazolidine-2-yl)pyrimidine-4-yl)amino)-2-(4-((2S,6R)-2,6-dimethylmorpholino)piperidine-1-yl)-4-methoxyphenyl) acrylamide] was tested. Which “Ba/F3 (NPH) Activity” value did it give?
The value was “C (500 nM ≤ GI50 < 5000 nM)”.
